This note sets out measurements from ChEMBL document CHEMBL1139127, “Structural modifications of (1S,3S)-3-amino-4-difluoromethylenecyclopentanecarboxylic acid, a potent irreversible inhibitor of GABA aminotransferase” (Bioorg Med Chem Lett, 2007).

Calls of active or inactive are those of the source. The rule behind the calls is not given here.

Test [1] addresses 4-aminobutyrate aminotransferase, mitochondrial (Homo sapiens) (UniProt P80404). Description: Inhibition of GABA-AT at 1.7 mM.
For test [2] the target is unchanged. Description: Inhibition of GABA-AT at 10 mM assessed as residual activity.

Sequence of 4-aminobutyrate aminotransferase, mitochondrial (Homo sapiens) (P80404 whole entry): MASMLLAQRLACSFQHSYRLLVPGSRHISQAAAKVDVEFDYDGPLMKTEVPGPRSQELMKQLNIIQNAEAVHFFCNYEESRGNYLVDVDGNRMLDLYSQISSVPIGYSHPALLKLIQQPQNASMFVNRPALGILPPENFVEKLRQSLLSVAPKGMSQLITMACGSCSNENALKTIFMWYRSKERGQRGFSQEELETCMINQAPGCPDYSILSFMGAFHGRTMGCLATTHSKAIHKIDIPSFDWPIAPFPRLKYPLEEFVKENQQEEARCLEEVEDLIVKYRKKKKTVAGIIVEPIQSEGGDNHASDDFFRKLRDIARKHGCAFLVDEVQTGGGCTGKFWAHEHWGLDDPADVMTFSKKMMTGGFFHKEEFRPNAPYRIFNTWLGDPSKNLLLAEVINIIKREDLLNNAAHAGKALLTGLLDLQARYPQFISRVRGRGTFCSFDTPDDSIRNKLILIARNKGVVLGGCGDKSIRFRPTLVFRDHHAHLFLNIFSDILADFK

Take `N[C@H]1C[C@@H](C(=O)O)CC1=C(Cl)Cl`: the result in test [1] was inactive. Further, the Activity in test [2] is 58%.
